Experimental data published in PubChem BioAssay AID602215 (Sanford-Burnham Center for Chemical Genomics, 2012).
Calls of active or inactive are those of the source.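 The calls were made as follows: active = IC50 of 20 µM or lower; inactive = the rest.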

What follows are molecules tested on HL-1 cardiomyocytes, H2O2 injury, ATP luminescence, 2 h (assay: protection of HL-1 cardiomyocytes from peroxide injury, dose response, cell-based, ATP luminescence (AID 602215);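 also: potency is for protection so actives raise ATP signal against peroxide damage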).

SMILES | IC50
NC(=O)COc1ccc2oc(=O)cc(-c3cc4ccccc4o3)c2c1 | 18.3 µM
CCOC(=O)C1CCN(c2cc3c(cc2NC(=O)c2ccccc2)n(C)c(=O)n3C)CC1 | > 79 µM (inactive)
O=C(NCC(=O)N(Cc1ccccc1)C(C(=O)NC1CCCCC1)c1ccco1)c1ccco1 (stereo not drawn) | > 79 µM (inactive)
O=S(=O)(c1ccccc1)N1CCN(c2nc(-c3cccnc3)nc3ccccc23)CC1 | > 79 µM (inactive)
COc1ccc(C(=O)Nc2cccc(NC(=O)c3ccc(OC)c(OC)c3)n2)cc1OC | > 79 µM (inactive)
CCOc1ncccc1C(=O)Nc1cccc(-c2nc3cccnc3s2)c1 | > 79 µM (inactive)
Cc1ccc(NC(=O)c2nc[nH]c2C(=O)NCCCNC(=O)c2[nH]cnc2C(=O)Nc2ccc(C)cc2)cc1 | > 79 µM (inactive)
CCOc1cc(/C=C/c2ccc3cccc([N+](=O)[O-])c3n2)ccc1OCC(=O)N(C)C | > 79 µM (inactive)
Cn1c(=O)c2[nH]c(NN=Cc3ccc(Br)cc3)nc2n(C)c1=O | > 79 µM (inactive)
CNC(=O)c1ccc(-c2sc3nc(N4CCOCC4)c4c(c3c2N)CC(C)(C)OC4)o1 | 1.84 µM
COc1cc(-c2cc(NC(C)=O)c3ncc(-c4ccc(F)cc4)n3c2)cc(OC)c1OC | > 79 µM (inactive)
COc1cc(-c2cc(C(=O)Nc3cccc(C(C)=O)c3)c3ccccc3n2)cc(OC)c1OC | 3.99 µM
COc1ccc2c(c1OC)C(=O)N1c3ccccc3C(=O)N(c3ccccc3)C21 (stereo not drawn) | > 79 µM (inactive)
NC(=O)c1nsc(C(=O)N(c2ccccc2)C(C(=O)NC2CCCC2)c2ccc3ncccc3c2)c1N (stereo not drawn) | 5.51 µM
COc1cc(CN2C[C@@H](CO)O[C@@H](n3cnc4c(Nc5ccccc5)ncnc43)C2)cc(OC)c1OC | 20.5 µM (inactive)
CC12C=CC(=O)CC1CCC1C2CCC2(C)C(O)C(O)CC12 (stereo not drawn) | > 79 µM (inactive)
COc1ccc(-c2cc(-c3nnc(COC(=O)C4CC4C)o3)c3ccccc3n2)cc1OC (stereo not drawn) | 3.49 µM
COc1ccc(-c2ccc3c(c2)S(=O)(=O)c2cccc(C(=O)NC[C@@H]4CCCO4)c2C3=O)cc1OC | > 79 µM (inactive)
O=C(COC(=O)c1ccccc1C(=O)OCC(=O)NCCc1c[nH]c2ccccc12)NCCc1c[nH]c2ccccc12 | > 79 µM (inactive)
CC(=O)c1ccc(-c2cnc3c(NC=O)cc(-c4ccc(C(=O)NC5CC5)cc4)cn23)cc1 | > 79 µM (inactive)
COc1cc(NC(=O)c2ccco2)c(OC)cc1NC(=O)c1cc(OC)c(OC)c(OC)c1 | 21 µM (inactive)
CCOc1cc(-c2cc(-c3ccc(N)cc3)nc(N)c2C#N)ccc1O | > 79 µM (inactive)

SMILES | IC50
O=C(Nc1cccc(NC(=O)c2ccc([N+](=O)[O-])o2)c1)c1ccco1 | > 79 µM (inactive)
CCN(CC)C(=O)c1[nH]cnc1C(=O)NCC(=O)OCc1ccccc1 | > 79 µM (inactive)
COc1cccc(/C=N/NC(=O)c2oc3nc(-c4ccccc4)cc(-c4ccco4)c3c2N)c1 | > 79 µM (inactive)
COc1ccc(-c2ccc3c(c2)S(=O)(=O)c2cccc(C(=O)N4CCN(c5c(Cl)cncc5Cl)CC4)c2C3=O)cc1OC | > 79 µM (inactive)
COc1cc(C(=O)N/N=C/c2sc(N3CCOCC3)nc2-c2ccccc2)cc(OC)c1OC | 48.4 µM (inactive)
CC(=O)Nc1ccc(C(=O)N/N=C/c2ccccc2OC(=O)c2ccc(Cl)cc2)cc1 | > 79 µM (inactive)
COc1ccc(-c2nn(-c3ccccc3)cc2C(=O)Nc2nccs2)cc1 | 13.7 µM
COc1cccc(C(=O)Nc2c(C(N)=O)oc3ccccc23)c1 | 27.6 µM (inactive)
O=C(Nc1ccccc1)c1nc[nH]c1C(=O)NCCCCCCNC(=O)c1[nH]cnc1C(=O)Nc1ccccc1 | 3.45 µM
CCOC(=O)C1CCN(c2cc3c(cc2NC(=O)c2ccc(OC)c(OC)c2)n(C)c(=O)n3C)CC1 | > 79 µM (inactive)
COc1ccc(-c2csc(NC(=O)CCCc3nc4ccccc4c(=O)[nH]3)n2)cc1OC | 11.9 µM
CC(C)=NNc1cnnc2ccc([N+](=O)[O-])cc12 | > 79 µM (inactive)
Cc1cccc(NC(=O)c2nc[nH]c2C(=O)NCCCCNC(=O)c2[nH]cnc2C(=O)Nc2cccc(C)c2)c1 | > 79 µM (inactive)
O=C(c1ccc(-c2nc3ccccc3s2)o1)N1CCN(c2ccccc2O)CC1 | > 79 µM (inactive)
COc1cc(OC)cc(-c2cc3nc(C)c(CCC(=O)Nc4nc(C)cs4)c(C)n3n2)c1 | > 79 µM (inactive)
CC(=O)c1ccc(-c2cnc3c(NC=O)cc(-c4cccc(C(=O)N(C)C)c4)cn23)cc1 | 12 µM
CCOC(=O)C1CCN(c2cc3c(cc2NC(=O)c2ccccc2Cl)n(C)c(=O)n3C)CC1 | > 79 µM (inactive)
CCCNC(=O)c1ccc(N2CCC3(CC2)CC(c2ccccc2)=NO3)c(NC(=O)c2ccco2)c1 | 3.22 µM
COc1cccc(-c2cnc3c(NC=O)cc(-c4cccc(NC(C)=O)c4)cn23)c1 | > 79 µM (inactive)
O=CNc1cc(-c2ccc(C(=O)NC3CC3)cc2)cn2c(-c3ccccc3)cnc12 | > 79 µM (inactive)
Cc1ccccc1N(C(=O)c1snc(C(N)=O)c1N)C(C(=O)NCc1ccccc1)c1ccc(O)cc1 (stereo not drawn) | 15.9 µM
CC(C)(C)NC(=O)COC(=O)c1c2c(nc3ccccc13)CCC2 | 49.1 µM (inactive)

SMILES | IC50
COc1cc(-c2cc(C(=O)NCc3ccco3)c3ccccc3n2)cc(OC)c1OC | 23.5 µM (inactive)
COc1cc(-c2cc3nc(NCCc4ccc(S(N)(=O)=O)cc4)ccn3n2)cc(OC)c1OC | 15.1 µM
O=C1OCCN1C(=O)[C@H]1[C@H](c2ccc([N+](=O)[O-])cc2)C(c2ccc(F)cc2)=NN1c1ccc(Br)cc1 | > 79 µM (inactive)
C=CCn1cnc2c(c1=O)c1nc3ccccc3nc1n2/N=C/c1cc(OC)c(OC)c(OC)c1 | > 79 µM (inactive)
CC(C)c1ccccc1NC(=O)COC(=O)c1c2c(nc3ccccc13)CCN(Cc1ccccc1)C2 | 41.4 µM (inactive)
O=C(Nc1ccccc1)c1nc[nH]c1C(=O)NCCCCNC(=O)c1[nH]cnc1C(=O)Nc1ccccc1 | 39.6 µM (inactive)
CN(C(=O)c1sc2nc(N3CCOCC3)c3c(c2c1N)CCCC3)c1ccccc1 | 8.63 µM
COc1cc(-c2cc(C(=O)OCC(=O)NC3CC3)c3ccccc3n2)cc(OC)c1OC | 12.7 µM
COc1ccc(-c2cc3nc(-c4ccccc4)cc(N4CCN(C(C)=O)CC4)n3n2)cc1 | 1.59 µM
COc1ccc(Nc2nnc(SCc3cc(=O)n4ccsc4n3)s2)cc1 | > 79 µM (inactive)
CCCn1nc(C(=O)Nc2nc(-c3ccccn3)cs2)c2ccccc2c1=O | 7.02 µM
C[C@@H]1CN([C@@H](C)CO)C(=O)c2cc(NC(=O)Nc3ccccc3)ccc2O[C@H]1CN(C)C(=O)Nc1cccc2ccccc12 | > 79 µM (inactive)
Cc1[nH]c2ccccc2c1/C=N/NC(=O)c1cc(-c2ccccc2)n[nH]1 | > 79 µM (inactive)
CC(=O)Nc1ccc(S(=O)(=O)N(Cc2cccnc2)Cc2cc3ccccc3[nH]c2=O)cc1 | 11.7 µM
CCOC(=O)c1c2c3c(cccc3n(C)c1=O)C(=O)c1ccccc1-2 | > 79 µM (inactive)
CCOC(=O)C(Cc1ccc(NC(=O)/C(=C/c2ccc(OC(C)=O)cc2)NC(C)=O)cc1)N1C(=O)c2ccccc2C1=O (stereo not drawn) | 32.5 µM (inactive)
COc1cc(OC)cc(C(=O)Nc2ccc(C(=O)Nc3ccccc3OC)cc2)c1 | > 79 µM (inactive)
CCN(CC(=O)Nc1ccc(OC)cc1)C(=O)c1cc(-c2cccs2)nn1-c1ccccc1 | > 79 µM (inactive)
CCN1C(=O)/C(=C/c2nc3ccccc3c(=O)[nH]2)c2ccccc21 | 5.41 µM
COc1cc(/C=N/NC(=O)c2ccccc2)ccc1OS(=O)(=O)c1ccccc1 | > 79 µM (inactive)
C=CC[C@@H](CC(=O)NCCO)C(=O)NC[C@H](OC(=O)[C@@H](CC=C)Cc1ccc(F)cc1)c1ccccc1 | > 79 µM (inactive)
N#C/C(=C\Nc1ccc2c(c1)OCCO2)c1nc2ccccc2[nH]1 | > 79 µM (inactive)

SMILES | IC50
Cn1c(=O)c2[nH]c(NN=Cc3cccc(Br)c3)nc2n(C)c1=O | > 79 µM (inactive)
CC(=O)c1cccc(Nc2nc3ccccc3n3cnnc23)c1 | > 79 µM (inactive)
COc1ccc(-n2c(/C=C/c3ccc(O)c(OC)c3)nc3ccccc3c2=O)cc1 | 12.1 µM
N#Cc1c(-c2ccco2)cc(-c2cccnc2)nc1N | 41.2 µM (inactive)
COc1cc(C(=O)Nc2nc(-c3cccs3)cs2)cc(OC)c1OC | > 79 µM (inactive)
COc1ccc(C(=O)Nc2cccc(/C(C)=N/NC(=O)c3ccc([N+](=O)[O-])c(C)c3)c2)cc1OC | > 79 µM (inactive)
COc1ccc(-c2cc(-c3nnc(COC(=O)c4ccncc4)o3)c3ccccc3n2)cc1OC | > 79 µM (inactive)
COc1ccc(-n2cc(-c3ccccc3)c3c(N4CCOCC4)ncnc32)cc1 | > 79 µM (inactive)
O=C(Nc1cc(S(=O)(=O)N2CCOCC2)ccc1N1CCCCC1)c1cc(-c2ccccn2)nc2ccccc12 | 3.6 µM
COc1cc(Nc2nc3ccccc3n3nnnc23)cc(OC)c1OC | > 79 µM (inactive)
C=CCOC(=O)C1=C[C@H](c2cn(C(C)=O)c3ccccc23)C[C@H](OCc2ccc(CO)cc2)O1 | > 79 µM (inactive)
CC1(c2ccccc2)NC(=O)N(CC(=O)Nc2cccc(/C=C/c3ccccn3)c2)C1=O (stereo not drawn) | 14 µM
CCOC(=O)c1c(C)[nH]c(C)c1C(=O)COc1ncnc2cc([N+](=O)[O-])ccc12 | > 79 µM (inactive)
O=C(c1cc(=O)[nH]c2ccccc12)N1CCN(S(=O)(=O)c2ccc(Cl)cc2)CC1 | > 79 µM (inactive)
NC(=O)c1nsc(C(=O)N(Cc2ccco2)C(C(=O)NCc2ccccc2)c2ccc(O)cc2)c1N (stereo not drawn) | 45.3 µM (inactive)
O=C(CN(c1ccc2c(c1)OCCO2)S(=O)(=O)c1ccccc1)Nc1ccc2c(c1)OCO2 | > 79 µM (inactive)
COc1ccc(CCNC(=O)C(=O)NCC2CCCN2S(=O)(=O)c2ccccc2)cc1OC (stereo not drawn) | > 79 µM (inactive)
NC(=O)c1cc2ccccc2o/c1=N\NC(=O)c1ccc(F)cc1 | 3.33 µM
COc1cc(-c2cc(NC(C)=O)c3ncc(-c4cc(OC)c(OC)c(OC)c4)n3c2)cc(OC)c1OC | 1.48 µM
CCn1c(O)c(/C=N/N=C/c2ccccc2)c2ccc(C3=NNC(=O)CC3)cc21 | > 79 µM (inactive)
Cc1cc(C)c2c(N)c(C(=O)N/N=C/c3cccnc3)sc2n1 | > 79 µM (inactive)
COCCCN(Cc1ccco1)C(=O)Cn1ncc2c([nH]c3ccccc32)c1=O | > 79 µM (inactive)
